Where “and” joins values, the source holds several entries; their conditions need not be identical. Equal values may be shown once. Square brackets hold non-standard residues; d marks the D form. Peptide text beside a SMILES is read from it. Cha = N[C@@H](CC1CCCCC1)C(=O)O; dCha = N[C@H](CC1CCCCC1)C(=O)O
Key:
Assay type in all cases: cell-based
C5a1 [1] = target: T1, C5a1 (Homo sapiens, UniProt P21730); experiment: pS332/pS334-C5a1 7TM phosphorylation assay; conditions: for Emax: read-out: Emax (% Control C028) pS332/pS334-C5a1
T1 construct: host or cells: Control-HEK293, ΔGRK2/3-HEK293, ΔGRK5/6-HEK293, stably expressing
T1 sequence (P21730 1-350): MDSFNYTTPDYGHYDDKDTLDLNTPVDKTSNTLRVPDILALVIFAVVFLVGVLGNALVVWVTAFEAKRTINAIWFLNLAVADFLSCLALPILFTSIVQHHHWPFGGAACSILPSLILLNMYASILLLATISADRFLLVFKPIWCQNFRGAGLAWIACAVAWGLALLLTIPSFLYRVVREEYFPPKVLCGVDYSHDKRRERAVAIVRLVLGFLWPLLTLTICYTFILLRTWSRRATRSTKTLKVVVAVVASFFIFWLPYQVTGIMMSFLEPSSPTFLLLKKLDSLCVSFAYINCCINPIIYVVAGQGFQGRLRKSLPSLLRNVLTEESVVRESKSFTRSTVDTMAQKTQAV

C5a1 [2] = target: T1, C5a1; experiment: pS338/pT339-C5a1 7TM phosphorylation assay; conditions: for Emax: read-out: Emax (% Control C028) pS338/pT339-C5a1
C5a1 [3] = target: T1, C5a1; experiment: pT324/pS327-C5a1 7TM phosphorylation assay; conditions: for Emax: read-out: Emax (% Control C028) pT324/pS327-C5a1
[4] = C028 0.01 µM, Control-C5aR1-HEK293
[5] = C028 0.01 µM, ΔGRK2/3-C5aR1-HEK293
[6] = C028 0.01 µM, ΔGRK5/6-C5aR1-HEK293
[7] = C028 0.1 µM, ΔGRK5/6-C5aR1-HEK293
[8] = C028 3 µM, Control-C5aR1-HEK293
[9] = C028 10 µM, ΔGRK5/6-C5aR1-HEK293, concentration series
[10] = Control-C5aR1-HEK293, C028 3 µM
[11] = ΔGRK2/3-C5aR1-HEK293, C028 0.01 µM
[12] = ΔGRK2/3-C5aR1-HEK293, C028 0.3 µM
[13] = ΔGRK2/3-C5aR1-HEK293, C028 10 µM (concentration series)
[14] = ΔGRK5/6-C5aR1-HEK293, C028 0.01 µM
[15] = ΔGRK5/6-C5aR1-HEK293, C028 0.1 µM

## N=C(N)NCCC[C@@H](NC(=O)[C@H](CC1CCCCC1)NC(=O)[C@@H](CC1CCCCC1)NC(=O)[C@@H]1CCCN1C(=O)[C@H](CCCCN)NC(=O)[C@@H](N)Cc1ccccc1)C(=O)O [C028, FKP-(D-Cha)-Cha-r] (H-FKP[dCha][Cha][dR]-OH)
C5a1 [1]; ΔGRK2/3-C5aR1-HEK293, C028 0.01 µM, concentration series
  pS332/pS334 (raw signal): 0.1764 and 0.1748 and 0.1484 and 0.1388 and 0.1181 and 0.1479 and 0.1441
C5a1 [1]; ΔGRK2/3-C5aR1-HEK293, C028 1 µM, concentration series
  pS332/pS334 (raw signal): 0.699 and 0.3955 and 0.6071 and 0.387 and 0.4065 and 0.4411 and 0.6614 and 0.6847
C5a1 [1]; ΔGRK2/3-C5aR1-HEK293, C028 10 µM, first 0/10 µM column pair
  pS332/pS334 (raw signal): 0.4715 and 0.6645 and 0.5267 and 0.3753 and 0.6914 and 0.6912 and 0.5711 and 0.6282
C5a1 [1]; ΔGRK2/3-HEK293
  Emax: 70.2%
C5a1 [1]; ΔGRK5/6-HEK293
  Emax: 50.8%
C5a1 [2]
  OD405 max pS338/pT339-C5a1: 0.97
  OD405 min pS338/pT339-C5a1: 0.05
C5a1 [2]; [4]
  pS338/pS339 normalized: 0.99% and 0.92% and 2.21% and 3.33% and 1.14% and 2.13% and -1.29% and -0.74%
  pS338/pS339 signal, raw: 0.1155 and 0.1223 and 0.1459 and 0.1501 and 0.1235 and 0.1345 and 0.146 and 0.1476
C5a1 [2]; [5]
  pS338/pS339 normalized: 2.29% and 0.59% and -0.76% and -0.97% and -2.55% and -1.82% and -0.06% and 0.89%
  pS338/pS339 signal, raw: 0.0952 and 0.0932 and 0.1355 and 0.1425 and 0.1714 and 0.1765 and 0.119 and 0.1119
C5a1 [2]; [6]
  pS338/pS339 normalized: -0.52% and 1.83% and 5.79% and 7.02% and 0.41% and 6.78% and -2.15% and -0.66%
  pS338/pS339 signal, raw: 0.1914 and 0.1791 and 0.1104 and 0.1268 and 0.0959 and 0.1124 and 0.1275 and 0.1571
C5a1 [2]; C028 0.1 µM, Control-C5aR1-HEK293
  pS338/pS339 signal, raw: 0.1875 and 0.2099 and 0.2083 and 0.1715 and 0.263 and 0.2723 and 0.28 and 0.2721
C5a1 [2]; C028 0.1 µM, ΔGRK2/3-C5aR1-HEK293
  pS338/pS339 normalized: 4.55% and 4.75% and 2.09% and -0.74% and 0.95% and 1.57% and 2.54% and 3.37%
C5a1 [2]; [7]
  pS338/pS339 normalized: 6.77% and 12.22% and 6.57% and 4.14% and 6.71% and 9.50% and 2.76% and 5.82%
  pS338/pS339 signal, raw: 0.1912 and 0.1825 and 0.1703 and 0.1709 and 0.1421 and 0.1595 and 0.2215 and 0.2673
C5a1 [2]; [8]
  pS338/pS339 normalized: 78.61% and 86.74% and 85.12% and 75.44% and 123.11% and 90.88% and 72.00% and 99.45%
  pS338/pS339 signal, raw: 0.8634 and 0.695 and 1.1554 and 0.7958 and 0.9051 and 1.0337 and 0.9787 and 0.9442
C5a1 [2]; C028 10 µM, Control-C5aR1-HEK293, concentration series
  pS338/pS339 normalized: 92.58% and 105.20% and 87.15% and 107.72% and 114.82% and 97.73% and 96.48% and 106.05%
C5a1 [2]; C028 10 µM, Control-C5aR1-HEK293, last 0/10 µM pair of Control block
  pS338/pS339 signal, raw: 0.8171 and 0.9223 and 0.6743 and 0.8573 and 1.0399 and 1.1081
C5a1 [2]; C028 10 µM, Control-C5aR1-HEK293 beside ΔGRK5/6 block
  pS338/pS339 signal, raw: 1.1983 and 1.0585 and 0.7547 and 0.8921 and 1.3122 and 1.2783 and 1.4177 and 1.3015
C5a1 [2]; [9]
  pS338/pS339 normalized: 60.81% and 85.60% and 54.29% and 47.10% and 52.27% and 73.34% and 65.73% and 72.42%
  pS338/pS339 signal, raw: 0.6953 and 0.6053 and 0.6054 and 0.6811 and 0.925 and 0.7569 and 1.0104 and 1.1456
C5a1 [2]; Control-HEK293
  Emax: 100%
C5a1 [2]; pEC50 pS338/pT339-C5a1, Control-HEK293
  EC50: 631 nM
C5a1 [2]; pEC50 pS338/pT339-C5a1, ΔGRK2/3-HEK293
  EC50: 1000 nM
C5a1 [2]; ΔGRK2/3-HEK293
  Emax: 55.2%
C5a1 [2]; ΔGRK5/6-HEK293
  Emax: 63.9%
C5a1 [3]
  OD405 max pT324/pS327-C5a1: 1.26
  OD405 min pT324/pS327-C5a1: 0.01
C5a1 [3]; Control-C5aR1-HEK293, C028 0.01 µM
  pT324/pS327 phosphorylation, normalized: 6.54% and 2.09% and 2.38% and -0.26% and 4.73% and 4.23% and 0.13% and 0.29%
C5a1 [3]; Control-C5aR1-HEK293, C028 0.1 µM
  pT324/pS327-C5aR1 Phosphorylation Assay, raw signal: 0.2603 and 0.2849 and 0.4452 and 0.4009 and 0.2355 and 0.392 and 0.2309 and 0.3621
C5a1 [3]; [10]
  pT324/pS327-C5aR1 Phosphorylation Assay, raw signal: 0.8349 and 0.7369 and 1.3757 and 1.2873 and 1.162 and 1.2785 and 0.8805 and 0.8562
  pT324/pS327 phosphorylation, normalized: 120.88% and 95.08% and 81.14% and 86.44% and 112.69% and 137.00% and 71.21% and 88.89%
C5a1 [3]; Control-C5aR1-HEK293, C028 10 µM (concentration series)
  pT324/pS327 phosphorylation, normalized: 119.78% and 104.86% and 86.39% and 115.09% and 117.11% and 104.93% and 106.33% and 104.22%
C5a1 [3]; Control-HEK293
  Emax: 100%
C5a1 [3]; pEC50 pT324/pS327-C5a1, Control-HEK293
  EC50: 501 nM
C5a1 [3]; pEC50 pT324/pS327-C5a1, ΔGRK2/3-HEK293
  EC50: 631 nM
C5a1 [3]; [11]
  pT324/pS327-C5aR1 Phosphorylation Assay, raw signal: 0.1906 and 0.2011 and 0.1388 and 0.1623 and 0.1923 and 0.1741 and 0.2414 and 0.2236
  pT324/pS327 phosphorylation, normalized: 5.63% and 2.70% and -1.25% and 2.28% and 0.48% and 3.13% and 6.18% and 3.90%
C5a1 [3]; ΔGRK2/3-C5aR1-HEK293, C028 0.1 µM
  pT324/pS327-C5aR1 Phosphorylation Assay, raw signal: 0.3121 and 0.3742 and 0.1921 and 0.224 and 0.2885 and 0.3186 and 0.3064
C5a1 [3]; [12]
  pT324/pS327-C5aR1 Phosphorylation Assay, raw signal: 0.5648 and 0.5979 and 0.3035 and 0.3146 and 0.4385 and 0.4523 and 0.4291 and 0.4848
  pT324/pS327 phosphorylation, normalized: 24.79% and 33.69% and 32.00% and 35.01% and 19.88% and 27.63% and 33.40% and 34.58%
C5a1 [3]; ΔGRK2/3-C5aR1-HEK293, C028 1 µM
  pT324/pS327 phosphorylation, normalized: 57.50% and 41.29% and 46.21% and 58.02% and 41.79% and 38.21% and 68.95% and 53.84%
C5a1 [3]; ΔGRK2/3-C5aR1-HEK293, C028 3 µM
  pT324/pS327-C5aR1 Phosphorylation Assay, raw signal: 0.9175 and 0.9435 and 0.5986 and 0.5479 and 0.9015 and 0.9692 and 0.812 and 0.8433
C5a1 [3]; [13]
  pT324/pS327-C5aR1 Phosphorylation Assay, raw signal: 0.9308 and 0.9846 and 0.7517 and 0.6067 and 1.0697 and 0.9407 and 1.15 and 0.9163
  pT324/pS327 phosphorylation, normalized: 96.12% and 84.19% and 64.50% and 63.55% and 84.08% and 59.71% and 82.71% and 58.42%
C5a1 [3]; ΔGRK2/3-HEK293
  Emax: 79.8%
C5a1 [3]; [14]
  pT324/pS327-C5aR1 Phosphorylation Assay, raw signal: 0.1198 and 0.124 and 0.1546 and 0.0999 and 0.1081 and 0.164 and 0.1821
  pT324/pS327 phosphorylation, normalized: -1.74% and -1.49% and 1.46% and 0.52% and 6.96% and 2.95% and -0.44% and 0.0738%
C5a1 [3]; [15]
  pT324/pS327-C5aR1 Phosphorylation Assay, raw signal: 0.1319 and 0.1326 and 0.1302 and 0.1434 and 0.1164 and 0.1306 and 0.173 and 0.1664
  pT324/pS327 phosphorylation, normalized: -0.96% and 0.29% and 1.64% and 0.38% and 2.18% and 3.49% and 1.29% and 7.61%
C5a1 [3]; ΔGRK5/6-C5aR1-HEK293, C028 0.3 µM
  pT324/pS327-C5aR1 Phosphorylation Assay, raw signal: 0.1652 and 0.1629 and 0.1483 and 0.1906 and 0.1747 and 0.2126 and 0.1807
C5a1 [3]; ΔGRK5/6-HEK293
  Emax: 27.8%

From paper PMC9646841, “A bead-based GPCR phosphorylation immunoassay for high-throughput ligand profiling and GRK inhibitor screening” (Communications Biology, 2022)
